Reference: ChEMBL document CHEMBL1128897, “Bivalent indoles exhibiting serotonergic binding affinity” (Bioorg Med Chem Lett, 1995)

Legend:
[1] = target: 5-hydroxytryptamine receptor 1E (Homo sapiens, UniProt P28566); assay: Inhibitory activity against 5-hydroxytryptamine 1E receptor subtype
[2] = target: T1, 5-hydroxytryptamine receptor 1A (Rattus norvegicus, UniProt P19327); assay: Inhibitory activity against 5-hydroxytryptamine 1A receptor subtype
T1 sequence (P19327 whole entry): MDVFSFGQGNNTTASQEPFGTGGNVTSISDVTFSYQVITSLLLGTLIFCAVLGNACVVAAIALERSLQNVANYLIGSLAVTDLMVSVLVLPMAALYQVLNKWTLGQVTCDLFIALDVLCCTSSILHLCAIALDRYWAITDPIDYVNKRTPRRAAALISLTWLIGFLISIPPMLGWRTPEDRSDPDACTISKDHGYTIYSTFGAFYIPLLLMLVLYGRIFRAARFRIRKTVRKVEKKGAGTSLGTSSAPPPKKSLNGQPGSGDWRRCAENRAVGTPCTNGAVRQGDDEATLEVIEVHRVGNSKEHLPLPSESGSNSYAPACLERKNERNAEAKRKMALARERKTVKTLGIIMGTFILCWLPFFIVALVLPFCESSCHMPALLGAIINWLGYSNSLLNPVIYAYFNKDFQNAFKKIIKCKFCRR

[3] = target: Sodium-dependent serotonin transporter (Rattus norvegicus, UniProt P31652); assay: Ability to inhibit Serotonin transporter
Sodium-dependent serotonin transporter, sequence (P31652 whole entry): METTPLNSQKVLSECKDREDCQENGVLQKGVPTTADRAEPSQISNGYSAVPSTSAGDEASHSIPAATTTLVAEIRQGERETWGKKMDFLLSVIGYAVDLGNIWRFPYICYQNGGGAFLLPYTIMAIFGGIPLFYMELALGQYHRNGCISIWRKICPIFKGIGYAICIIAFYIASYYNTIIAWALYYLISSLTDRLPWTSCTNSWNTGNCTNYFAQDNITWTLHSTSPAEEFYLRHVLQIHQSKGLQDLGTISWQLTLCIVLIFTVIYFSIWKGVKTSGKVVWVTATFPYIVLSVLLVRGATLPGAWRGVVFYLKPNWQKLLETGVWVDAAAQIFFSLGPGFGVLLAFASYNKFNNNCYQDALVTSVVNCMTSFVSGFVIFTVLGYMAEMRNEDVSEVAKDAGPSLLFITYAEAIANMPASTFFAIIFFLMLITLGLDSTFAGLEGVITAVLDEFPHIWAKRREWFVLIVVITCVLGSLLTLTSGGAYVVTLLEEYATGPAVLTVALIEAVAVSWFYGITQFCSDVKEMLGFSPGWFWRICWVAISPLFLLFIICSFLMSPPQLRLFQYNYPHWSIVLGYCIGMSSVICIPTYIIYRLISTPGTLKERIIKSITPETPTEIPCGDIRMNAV

5-hydroxytryptamine receptor 1E, sequence (P28566 whole entry): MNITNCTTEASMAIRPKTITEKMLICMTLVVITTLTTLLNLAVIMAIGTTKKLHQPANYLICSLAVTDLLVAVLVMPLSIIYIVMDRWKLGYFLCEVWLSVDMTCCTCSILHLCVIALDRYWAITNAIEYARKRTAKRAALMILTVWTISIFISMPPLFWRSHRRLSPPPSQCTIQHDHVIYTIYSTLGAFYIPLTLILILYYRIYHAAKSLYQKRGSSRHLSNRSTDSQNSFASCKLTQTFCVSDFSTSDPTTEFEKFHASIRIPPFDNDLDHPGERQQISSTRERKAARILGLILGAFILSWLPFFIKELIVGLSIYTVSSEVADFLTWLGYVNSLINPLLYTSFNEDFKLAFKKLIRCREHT

Row | SMILES | IC50 [1] [nM] | IC50 [2] [nM] | IC50 [3] [nM]
1 | NC(=O)c1ccc2[nH]cc(C3=CCC(NCCCCCCCCCCNC4CC=C(c5c[nH]c6ccc(C(N)=O)cc56)CC4)CC3)c2c1 (centres undefined) | > 1000 | 0.22 | –
2 | NC(=O)c1ccc2[nH]cc(C3=CCC(NCCCCCCCCCCCCNC4CC=C(c5c[nH]c6ccc(C(N)=O)cc56)CC4)CC3)c2c1 (centres undefined) | – | 0.13 | –
3 | NC(=O)c1ccc2[nH]cc(C3=CCC(NCCCNC4CC=C(c5c[nH]c6ccc(C(N)=O)cc56)CC4)CC3)c2c1 (centres undefined) | > 1000 | 18 | –
4 | NC(=O)c1ccc2[nH]cc(C3=CCC(NCCCCCCCNC4CC=C(c5c[nH]c6ccc(C(N)=O)cc56)CC4)CC3)c2c1 (centres undefined) | 99 | 1.83 | 17.7
5 | NC(=O)c1ccc2[nH]cc(C3=CCC(NCCNC4CC=C(c5c[nH]c6ccc(C(N)=O)cc56)CC4)CC3)c2c1 (centres undefined) | > 1000 | 2 | 12.6
6 | NC(=O)c1ccc2[nH]cc(C3=CCC(NCCCCCNC4CC=C(c5c[nH]c6ccc(C(N)=O)cc56)CC4)CC3)c2c1 (centres undefined) | > 1000 | 2.86 | 47.5
7 | NC(=O)c1ccc2[nH]cc(C3=CCC(NCCCCCCCCNC4CC=C(c5c[nH]c6ccc(C(N)=O)cc56)CC4)CC3)c2c1 (centres undefined) | 392 | 2.13 | 12.4
8 | CCCCCCCNC1CC=C(c2c[nH]c3ccc(C(N)=O)cc23)CC1 (centres undefined) | – | 1.27 | –
9 | NC(=O)c1ccc2[nH]cc(C3=CCC(NCCCCCCNC4CC=C(c5c[nH]c6ccc(C(N)=O)cc56)CC4)CC3)c2c1 (centres undefined) | > 1000 | 2.27 | 33.9
10 | NC(=O)c1ccc2[nH]cc(C3=CCC(NCCCCNC4CC=C(c5c[nH]c6ccc(C(N)=O)cc56)CC4)CC3)c2c1 (centres undefined) | > 1000 | 14.5 | 47.8
